The text below walks through data of patent US20250049036A1 (priority 2021, published 2025).

One assay has as its system Parastagonospora nodorum. Briefly: Parastagonospora nodorum (PARANO) spore growth inhibition in liquid medium, 96-well microtiter plate, OD 600. The assay is classed as cell-based. As to conditions: spore suspension in PDB liquid medium, 18° C., 5-6 days, OD at 600, read-out: control compared to the untreated check. How it is done:
Potato dextrose (PDB) liquid medium (Difco) containing a PARANO (10^5 spores/ml) spore suspension was prepared. For the inhibition assay, each test compound was solved in dimethyl sulfoxide. 100 μl of the test compound in media-solution was added to a 96-well microtiter plate, consequently, the same volume (100 μl) of spore suspension was added to the well making the final test concentrations and the plate was incubated at 18° C. for 5-6 days. The growth inhibition was evaluated by measuring the OD at 600. Percent inhibition was calculated with the below formula: […]

In another assay the test system is Phakopsora pachyrhizi. Briefly: Phakopsora pachyrhizi test on soybean, preventive, greenhouse. The assay is classed as in vivo. The note with it: preventive spray on soybean, inoculated one day after treatment, read-out: control (efficacy, disease severity) compared to the untreated check. How it is done: The respective compound was dissolved in 2% dimethyl sulfoxide/acetone and then mixed with water containing emulsifier to the calibrated spray volume of 30 mL. Each spray solution was poured into a spray bottle for further application.
To test the preventive activity of a compound, healthy young soybean plants, raised in the greenhouse, were sprayed with the active compound preparation at the stated application rate inside the spray cabinets using hollow cone nozzles. One day after treatment, the plants were inoculated with a conidial suspension containing 2×10^5 Phakopsora pachyrhizi inoculum. The inoculated plants were then kept in a greenhouse chamber at 22-24° C. temperature and 80-90% relative humidity for disease expression.

As for `Cn1ccc2cc(C(=O)NC(C)(C)Cc3ccc(C(C)(C)C)cc3)cnc21` [Compound 16, N-(1-(4-(tert-butyl)phenyl)-2-methylpropan-2-yl)-1-methyl-1H-pyrrolo[2,3-b]pyridine-5-carboxamide], the inhibition of growth at 300 ppm with Parastagonospora nodorum is no less than 70%.

For `Cn1cc(Cl)c2cc(C(=O)NC3(c4cc(Cl)cc(Cl)c4)CC3)cnc21` [Compound 140, 3-chloro-N-(1-(3,5-dichlorophenyl)cyclopropyl)-1-methyl-1H-pyrrolo[2,3-b]pyridine-5-carboxamide], in the assay with Phakopsora pachyrhizi, the pest or weed control at 500 ppm is no less than 70%.

With `Cc1nc2[nH]ccc2cc1C(=O)NC(C)(C)Cc1ccc(F)cc1` [Compound 94, N-(1-(4-fluorophenyl)-2-methylpropan-2-yl)-6-methyl-1H-pyrrolo[2,3-b]pyridine-5-carboxamide], in the assay on Phakopsora pachyrhizi, the pest or weed control at 500 ppm was no less than 70%.

With `Cc1cccc(CC(NC(=O)c2cnc3[nH]ccc3c2)C(C)(C)O)c1` (centres unmarked) [Compound 104, N-(3-hydroxy-3-methyl-1-(m-tolyl)butan-2-yl)-1H-pyrrolo[2,3-b]pyridine-5-carboxamide], the pest or weed control at 500 ppm in the assay on Phakopsora pachyrhizi was no less than 70%.

As to `COc1nc2c(cc1C(=O)NC(C)(C)COc1ccnc(Cl)c1)CCC2` [Compound 243, N-(1-((2-chloropyridin-4-yl)oxy)-2-methylpropan-2-yl)-2-methoxy-6,7-dihydro-5H-cyclopenta[b]pyridine-3-carboxamide], the inhibition of growth at 300 ppm in the assay on Parastagonospora nodorum is no less than 70%.

For `Cc1ccc(F)cc1C(O)C(C)(C)NC(=O)c1cnc2c(c1)c(Br)cn2C` (centres unmarked) [Compound 135, 3-bromo-N-(1-(5-fluoro-2-methylphenyl)-1-hydroxy-2-methylpropan-2-yl)-1-methyl-1H-pyrrolo[2,3-b]pyridine-5-carboxamide], the inhibition of growth at 300 ppm with Parastagonospora nodorum is no less than 70%.

In the case of `Cc1ccc(COCC(C)(C)NC(=O)c2cnc3ccsc3c2)c(C)c1` [Compound 200, N-(1-((2,4-dimethylbenzyl)oxy)-2-methylpropan-2-yl)thieno[3,2-b] pyridine-6-carboxamide], the inhibition of growth at 300 ppm with Parastagonospora nodorum is no less than 70%.

For `CC(C)(COc1ccnc(Cl)c1)NC(=O)c1cnc2ccsc2c1` [Compound 205, N-(1-((2-chloropyridin-4-yl)oxy)-2-methylpropan-2-yl)thieno[3,2-b] pyridine-6-carboxamide], the inhibition of growth at 300 ppm with Parastagonospora nodorum was no less than 70%.

Consider `CC(C)c1ccc(CC(C)(C)NC(=O)c2cnc3c(ccn3C)c2)cc1` [Compound 18, N-(1-(4-isopropylphenyl)-2-methylpropan-2-yl)-1-methyl-1H-pyrrolo[2,3-b]pyridine-5-carboxamide], for which, in the assay on Parastagonospora nodorum, the inhibition of growth at 300 ppm is no less than 70%.

Regarding `C=C(C)CC(C)(Cc1ccccc1F)NC(=O)c1cnc2c(c1)c(Br)cn2C` (centres unmarked) [Compound 142, 3-bromo-N-(1-(2-fluorophenyl)-2,4-dimethylpent-4-en-2-yl)-1-methyl-1H-pyrrolo[2,3-b]pyridine-5-carboxamide], in the assay on Phakopsora pachyrhizi, the pest or weed control at 500 ppm is no less than 70%.

Turning to `CCC(O)(CC)C(NC(=O)c1cnc2c(c1)c(Cl)cn2C)c1ccccc1` (centres unmarked) [Compound 138, 3-chloro-N-(2-ethyl-2-hydroxy-1-phenylbutyl)-1-methyl-1H-pyrrolo[2,3-b] pyridine-5-carboxamide], the pest or weed control at 500 ppm in the assay on Phakopsora pachyrhizi was no less than 70%.

`Cn1cc(Cl)c2cc(C(=O)NC3Cc4ccccc4C3)cnc21` [Compound 137, 3-chloro-N-(2,3-dihydro-1H-inden-2-yl)-1-methyl-1H-pyrrolo[2,3-b]pyridine-5-carboxamide]: in the assay with Phakopsora pachyrhizi, the pest or weed control at 500 ppm was no less than 70%.

With `COc1nc2c(cc1C(=O)NC1(Cc3ccccc3)CC1)CCC2` [Compound 245, N-(1-benzylcyclopropyl)-2-methoxy-6,7-dihydro-5H-cyclopenta[b]pyridine-3-carboxamide], the inhibition of growth at 300 ppm in the assay on Parastagonospora nodorum was no less than 70%.

For the compound `Cc1ccc(C)c(COCC(C)(C)NC(=O)c2cnc3c(ccn3C)c2)c1` [Compound 227, N-(1-((2,5-dimethylbenzyl)oxy)-2-methylpropan-2-yl)-1-methyl-1H-pyrrolo[2,3-b]pyridine-5-carboxamide], the inhibition of growth at 300 ppm with Parastagonospora nodorum is no less than 70%.

As to `Cn1ccc2cc(C(=O)NC(C)(C)Cc3cccc(Cl)c3)cnc21` [Compound 22, N-(1-(3-chlorophenyl)-2-methylpropan-2-yl)-1-methyl-1H-pyrrolo[2,3-b]pyridine-5-carboxamide], the pest or weed control at 500 ppm in the assay on Phakopsora pachyrhizi was no less than 70%.

As for `Cn1ccc2cc(C(=O)NC(C)(C)Cc3ccccc3Cl)cnc21` [Compound 17, N-(1-(2-chlorophenyl)-2-methylpropan-2-yl)-1-methyl-1H-pyrrolo[2,3-b]pyridine-5-carboxamide], the inhibition of growth at 300 ppm in the assay with Parastagonospora nodorum was no less than 70%.

Consider `COc1nc2[nH]ccc2cc1C(=O)NC(C)(C)Cc1ccccc1` [Compound 88, 6-methoxy-N-(2-methyl-1-phenylpropan-2-yl)-1H-pyrrolo[2,3-b] pyridine-5-carboxamide], for which the pest or weed control at 500 ppm in the assay on Phakopsora pachyrhizi was no less than 70%.

On to `Cc1nc2[nH]ccc2cc1C(=O)NC(C)(C)Cc1ccccc1` [Compound 93, 6-methyl-N-(2-methyl-1-phenylpropan-2-yl)-1H-pyrrolo[2,3-b] pyridine-5-carboxamide], for which, in the assay on Phakopsora pachyrhizi, the pest or weed control at 500 ppm is no less than 70%.

Consider `Cn1cc(C2CC2)c2cc(C(=O)NC(C)(C)Cc3ccccc3F)cnc21` [Compound 60, 3-cyclopropyl-N-(1-(2-fluorophenyl)-2-methylpropan-2-yl)-1-methyl-1H-pyrrolo[2,3-b]pyridine-5-carboxamide], for which the inhibition of growth at 300 ppm with Parastagonospora nodorum was no less than 70%.

`C=CCC(C)(Cc1ccccc1F)NC(=O)c1cnc2ccsc2c1` (centres unmarked) [Compound 134, N-(1-(2-fluorophenyl)-2-methylpent-4-en-2-yl)thieno[3,2-b] pyridine-6-carboxamide]: the pest or weed control at 500 ppm in the assay with Phakopsora pachyrhizi was no less than 70%.

Take `Cc1cc(F)ccc1C(O)C(C)(C)NC(=O)c1cnc2ccsc2c1` (centres unmarked) [Compound 173, N-(1-(4-fluoro-2-methylphenyl)-1-hydroxy-2-methylpropan-2-yl)thieno[3,2-b] pyridine-6-carboxamide]: in the assay on Parastagonospora nodorum, the inhibition of growth at 300 ppm is no less than 70%.

In the case of `CC(C)(Cc1ccccc1)NC(=O)c1cc2c(nc1Cl)CCC2` [Compound 210, 2-chloro-N-(2-methyl-1-phenylpropan-2-yl)-6,7-dihydro-5H-cyclopenta[b]pyridine-3-carboxamide], the inhibition of growth at 300 ppm with Parastagonospora nodorum is no less than 70%.

Take `COc1nc2c(cc1C(=O)NC(C)(C)Cc1ccccc1)CCC2` [Compound 217, 2-methoxy-N-(2-methyl-1-phenylpropan-2-yl)-6,7-dihydro-5H-cyclopenta[b]pyridine-3-carboxamide]: the inhibition of growth at 300 ppm in the assay with Parastagonospora nodorum is no less than 70%.

As for `CC(c1ccccc1)C(C)(C)NC(=O)c1cnc2c(c1)c(Cl)cn2C` (centres unmarked) [Compound 87, 3-chloro-1-methyl-N-(2-methyl-3-phenylbutan-2-yl)-1H-pyrrolo[2,3-b]pyridine-5-carboxamide], the pest or weed control at 500 ppm in the assay on Phakopsora pachyrhizi is no less than 70%.

Consider `CON(C(=O)c1cnc2c(c1)CCC2)C(C)Cc1ccccc1F` (centres unmarked) [Compound 253, N-(1-(2-fluorophenyl)propan-2-yl)-N-methoxy-6,7-dihydro-5H-cyclopenta[b]pyridine-3-carboxamide], for which the inhibition of growth at 300 ppm with Parastagonospora nodorum was no less than 70%.

In the case of `C=C(C)CC(C)(COc1ccccc1F)NC(=O)c1cnc2c(c1)c(Cl)cn2C` (centres unmarked) [Compound 179], the inhibition of growth at 300 ppm in the assay with Parastagonospora nodorum is no less than 70%.
